According to patent US20100183527A1, “Cosmetic Compositions Comprising Sclareolide and Hesperidin Methyl Chalcone” (COGNIS IP MANAGEMENT GMBH, priority 2007, published 2010):

Tests used:
Type in all cases: cell-based
[1] = test system: Melanocytes (B16 cell line); assay: Number of viable cells by level of cellular proteins (Bradford's method), Example 1; conditions: 3 days incubation, mean +/- SEM
Method: (§1) Melanocytes (B16 cell line) were inoculated in standard medium of cell culture with foetal calf serum (FCS). After an incubation of 3 day at 37° C. and CO2=5%, growth medium was exchanged for standard medium with a range of concentrations for each active ingredient to be tested and a control without ingredient. After an incubation of 3 days, the level of melanin was measured by recording the optical density at 475 nm. After washing the cells by a balanced salt solution, and homogenisation in a solution of 0.1 M NaOH, the number of viable cells was determined by evaluation of the level of cellular proteins (Bradford's method). The results are expressed in % against control (cell culture medium without compound) as a mean+/−SEM (Standard Error of Mean) on 2 or 3 assays, each in triplicate.

[2] = test system: Melanocytes (B16 cell line); assay: Number of viable cells by level of cellular proteins (Bradford's method), Example 2 combination; conditions: for Amount of cellular proteins: mean +/- SEM
Method: (§2) Melanocytes (B16 cell line) were inoculated in standard medium of cell culture with foetal calf serum (FCS). After an incubation for 3 days at 37° C. and CO2=5%, growth medium was exchanged for standard medium with a range of concentrations for each active ingredient to be tested and a control without ingredient. Combinations of active ingredients were tested on the same cultures, in parallel with active ingredients alone. After an incubation of 3 days, the cells were washed by a balanced salt solution, and homogenised in a solution of 0.1 M NaOH. The number of viable cells was determined by evaluation of the level of cellular proteins (Bradford's method) and the level of intracellular melanin was measured by recording the optical density at 475 nm.
(§3) The results are expressed in % against control (cell culture medium without compound) as a mean+/−SEM (Standard Error of Mean) on 5 assays, each in triplicate.

[3] = test system: Melanocytes (B16 cell line); assay: Melanogenesis stimulation assay, level of melanin (optical density at 475 nm); conditions: 3 days incubation, mean +/- SEM
Method: as §1

[4] = test system: Melanocytes (B16 cell line); assay: Melanogenesis stimulation assay for combination, level of intracellular melanin (optical density at 475 nm); conditions: for rate of melanin: mean +/- SEM
Method: as §2, §3

[5] = Sclareolide 0.000025 % (w/v) alone
[6] = Sclareolide 0.000050 % (w/v) alone

SMILES: CC1(C)CCC[C@]2(C)[C@H]3CC(=O)O[C@]3(C)CC[C@@H]12 [Sclareolide, (3aR,5aS,9aS,9bR)— decahydro-3a,6,6,9a-tetramethyl naphtho(2,1-b)furan-2(1H)-one]
- Protein level (rate of cellular proteins) ([1]; Dose 0.0003 % (w/v)): 89 +/− 11 %/control
- Protein level (rate of cellular proteins) ([1]; Dose 0.001 % (w/v)): 83 +/− 17 %/control
- Amount of cellular proteins [2, 5]: 97 +/− 18 %/control
- Amount of cellular proteins [2, 6]: 106 +/− 10 %/control
- toxic effects, decrease of amount of cellular proteins (in words) ([2]; concentrations of Table 3, tested separately or mixed): do not show any toxic effects
- Melanin level ([3]; Dose 0.0003 % (w/v)): 174 +/− 55 %/control
- Melanin level ([3]; Dose 0.001 % (w/v)): 286 +/− 83 %/control
- rate of melanin [4, 5]: 116 +/− 7 %/control
- rate of melanin [4, 6]: 120 +/− 6 %/control
- rate of melanin synthesis / efficacy (in words) ([4]; very low doses (Table 2)): increased the rate of melanin synthesis
